The results in this text go back to US7018981B2, “Cyclic motilin receptor antagonists” (Chugai Seiyaku Kabushiki Kaisha, priority 2000, dated 2006).

SMILES strings stand for the structures. Where a SMILES comes first, the peptide text is derived from it. Bridges are numbered along the chain shown (N, C = ends). [ ]: non-standard residue; d: D form. NMeTyr(3-tBu) = CN[C@@H](Cc1ccc(O)c(C(C)(C)C)c1)C(=O)O; Tyr(3-tBu) = CC(C)(C)c1cc(C[C@H](N)C(=O)O)ccc1O; Phe(4-F) = N[C@@H](Cc1ccc(F)cc1)C(=O)O; NMeLys(Me) = CNCCCC[C@H](NC)C(=O)O; NMeK = CN[C@@H](CCCCN)C(=O)O; GABA = NCCCC(=O)O; βAla = NCCC(=O)O

The test system of experiment [1] is motilin-induced contraction of a sample of the longitudinal muscle of the duodenum. The experiment is described as follows: Contraction inhibition test: motilin-induced contraction of rabbit longitudinal duodenal muscle. In kind it is cell-based. As to conditions: Oryctolagus cuniculus; concentration-dependent contraction induced by motilin; rabbit duodenal specimen in Krebs solution at 28° C.; read-out: Contraction inhibition test pA2 (converted). As to the method: The effect of compounds of the present invention on motilin-induced contraction of a sample of the longitudinal muscle of the duodenum extracted from a rabbit was tested as follows.
A duodenal specimen (5×15 mm) extracted from a killed rabbit was suspended in the direction of the longitudinal muscle in an incubator at 28° C. filled with Krebs solution (10 ml organ bath). A mixed gas (95% O2, 5% CO2) was continuously passed through the Krebs solution and the contraction of the duodenal specimen was isotonically recorded (under a load of 1 g) via an isotonic transducer (ME-3407, ME Commercial, Tokyo, Japan). The extent of contraction of the duodenal specimen was expressed as a percentage to the contraction induced by acetylcholine at a concentration of 10^−4 M.
The effect of the compounds synthesized in Examples 1–8 and 10 on the concentration-dependent contraction induced by motilin added into the incubator was determined to calculate pA2 (see “Drug receptors” edited by Takayanagi, published by Nanzando). As a comparative example, the results of the compound of formula (5) are also shown.

In experiment [2] the target is T1, motilin receptors (Oryctolagus cuniculus, UniProt G1T803).
T1 construct: A protein solution was prepared by homogenizing the duodenum isolated from a killed rabbit; from tissue; host or cells: rabbit duodenum, mucosa stripped, homogenate
The experiment can be described thus: Motilin receptor binding test (125I motilin, rabbit duodenum protein solution). Particulars: concentration inhibiting 50% of specific binding of 25 pM 125I motilin; rabbit duodenum homogenate, 2 hours at 25° C. Here is the method: Motilin receptor binding activities of compounds of the present invention were tested as follows [Vantrappen et al., Regul.
A protein solution was prepared by homogenizing the duodenum isolated from a killed rabbit in 50 mM Tris after stripping the mucosa. […] The difference between the radioactivity of the protein solution incubated alone and the radioactivity of the protein solution incubated with a large excess of motilin (10^−7 M) was recorded as specific binding of motilin to motilin receptors.

T1 sequence (G1T803 1-400): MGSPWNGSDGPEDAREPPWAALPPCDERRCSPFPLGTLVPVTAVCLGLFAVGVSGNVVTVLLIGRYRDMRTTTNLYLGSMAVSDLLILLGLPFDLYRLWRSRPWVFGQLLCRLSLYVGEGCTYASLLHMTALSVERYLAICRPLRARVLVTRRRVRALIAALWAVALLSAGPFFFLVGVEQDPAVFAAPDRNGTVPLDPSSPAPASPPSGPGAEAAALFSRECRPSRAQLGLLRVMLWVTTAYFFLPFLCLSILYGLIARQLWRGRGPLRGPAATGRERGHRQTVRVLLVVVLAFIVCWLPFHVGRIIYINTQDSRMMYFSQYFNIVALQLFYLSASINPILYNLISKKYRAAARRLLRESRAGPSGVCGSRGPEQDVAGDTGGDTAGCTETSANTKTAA

The term IC50 denotes the midpoint of a concentration-inhibition curve. Higher therefore signals weaker potency. For the compound `CN(C(=O)[C@@H](N)Cc1ccc(F)cc1)[C@H]1CCCCNC(=O)CCNC(=O)[C@H](Cc2ccc(O)c(C(C)(C)C)c2)NC1=O` [Example 1, (2S-(2S,13S))-2-amino-N-(2-(3-tert-butyl-4-hydroxyphenylmethyl)-1,4,8-triaza-3,7,14-trioxocyclotetradec-13-yl)-3-(4-fluorophenyl)-N-methylpropionamide] (H-[Phe(4-F)][NMeK][Tyr(3-tBu)][βAla]; lactam 2-C), the Kb in experiment [1] was 1 nM. Further, the concentration for half-maximal inhibition (IC50) in experiment [2] is 1.2 nM.
The corresponding values for `CN(C(=O)[C@@H](N)Cc1ccc(F)cc1)[C@H]1CCCCNC(=O)CCNC(=O)[C@H](Cc2ccc(O)c(C(C)(C)C)c2)N(C)C1=O` [Example 2, (2S-(2S.13S))-2-amino-N-(2-(3-tert-butyl-4-hydroxyphenylmethyl)-1-methyl-1,4,8-triaza-3,7,14-trioxocyclotetradec-13-yl)-3-(4-fluorophenyl)-N-methylpropionamide] (H-[Phe(4-F)][NMeK][NMeTyr(3-tBu)][βAla]; lactam 2-C) are 1.26 nM and 1.4 nM.
The corresponding values for `CN(C(=O)[C@@H](N)Cc1ccc(F)cc1)[C@H]1CCCCNC(=O)CNC(=O)[C@H](Cc2ccc(O)c(C(C)(C)C)c2)NC1=O` [Example 3, (2S-(2S,12S))-2-amino-N-(2-(3-tert-butyl-4-hydroxyphenylmethyl)-1,4,8-triaza-3,7,13-trioxocyclotridec-12-yl)-3-(4-fluorophenyl)-N-methylpropionamide] (H-[Phe(4-F)][NMeK][Tyr(3-tBu)]G; lactam 2-C) are 6.31 nM and 0.52 nM.
For `CN1CCC(=O)NCCCC[C@H](N(C)C(=O)[C@@H](N)Cc2ccc(F)cc2)C(=O)N[C@@H](Cc2ccc(O)c(C(C)(C)C)c2)C1=O` [Example 4, (2S-(2S,13S))-2-amino-N-(2-(3-tert-butyl-4-hydroxyphenylmethyl)-4-methyl-1,4,8-triaza-3,7,14-trioxocyclotetradec-13-yl)-3-(4-fluorophenyl)-N-methylpropionamide] the same measures were 1 nM and 0.78 nM.
`CN1CCCC[C@H](N(C)C(=O)[C@@H](N)Cc2ccc(F)cc2)C(=O)N[C@@H](Cc2ccc(O)c(C(C)(C)C)c2)C(=O)NCCC1=O` [Example 5, (2S-(2S,13S))-2-amino-N-(2-(3-tert-butyl-4-hydroxyphenylmethyl)-8-methyl-1,4,8-triaza-3,7,14-trioxocyclotetradec-13-yl)-3-(4-fluorophenyl)-N-methylpropionamide] (H-[Phe(4-F)][NMeLys(Me)][Tyr(3-tBu)][βAla]; lactam 2-C): the Kb in experiment [1] is 0.126 nM. In experiment [2], this compound came in with an IC50 of 1.4 nM.
For `CN(C(=O)[C@@H](N)Cc1ccc(F)cc1)[C@H]1CCCCNC(=O)CCCNC(=O)[C@H](Cc2ccc(O)c(C(C)(C)C)c2)NC1=O` [Example 6, (2S-(2S,14S))-2-amino-N-(2-(3-tert-butyl-4-hydroxyphenylmethyl)-1,4,9-triaza-3,8,15-trioxocyclopentadec-14-yl)-3-(4-fluorophenyl)-N-methylpropionamide] (H-[Phe(4-F)][NMeK][Tyr(3-tBu)][GABA]; lactam 2-C) the same measures were 3.16 nM and 0.87 nM.
As for `CC(C)(C)c1cc(C[C@@H]2NC(=O)[C@@H](NC(=O)[C@@H](N)Cc3ccc(F)cc3)CCCCNC(=O)CCNC2=O)ccc1O` [Example 7, (2S,14S)-13-(2S-2-amino-3-(4-fluorophenyl)propylamino)-2-(3-tert-butyl-4-hydroxyphenylmethyl)-1,4,8-triaza-3,7,14-trioxocyclotetradecane] (H-[Phe(4-F)]K[Tyr(3-tBu)][βAla]; lactam 2-C), the Kb in experiment [1] was 10 nM. The compound also registered a half-inhibitory concentration (IC50) in experiment [2] of 4.5 nM.
The corresponding values for `CC(=O)N1CCCC[C@H](N(C)C(=O)[C@@H](N)Cc2ccc(F)cc2)C(=O)N[C@@H](Cc2ccc(O)c(C(C)(C)C)c2)C(=O)NCCC1` [Example 8, (2S-(2S.13S))-N-(8-acetyl-2-(3-tert-butyl-4-hydroxyphenylmethyl)-N-methyl-1,4,8-triaza-3,14-dioxocyclotetradec-13-yl)-2-amino-3-(4-fluorophenyl)propionamide] are 6.31 nM and 0.84 nM.
As for `CN(C(=O)[C@@H](N)Cc1ccccc1)[C@H]1CCCCNC(=O)CCNC(=O)[C@H](Cc2ccc(O)c(C(C)(C)C)c2)NC1=O` [Example 10, (2S-(2S,13S))-2-amino-N-(2-(3-tert-butyl-4-hydroxyphenylmethyl)-1,4,8-triaza-3,7,14-trioxocyclotetradec-13-yl)-3-phenyl-N-methylpropionamide] (H-F[NMeK][Tyr(3-tBu)][βAla]; lactam 2-C), the Kb in experiment [1] is 12.6 nM. In experiment [2], this compound came in with a half-inhibitory concentration (IC50) of 2.2 nM.
